Values of other authors, collected in patent US20100197944A1, “DOCETAXEL PROCESS AND POLYMORPHS” (DR. REDDY'S LABORATORIES LIMITED, priority 2007, published 2010).

Conditions: compared with anhydrous docetaxel

Q: Which “Stability relative to the anhydrous product” value does the source give for `CC(=O)O[C@@]12CO[C@@H]1C[C@H](O)[C@@]1(C)C(=O)[C@H](O)C3=C(C)[C@@H](OC(=O)[C@H](O)[C@@H](NC(=O)OC(C)(C)C)c4ccccc4)C[C@@](O)([C@@H](OC(=O)c4ccccc4)[C@H]21)C3(C)C` [Docetaxel trihydrate, 4-acetoxy-2α-benzoyloxy-5β,20-epoxy-1,7β,10β-trihydroxy-9-oxo-tax-11-en-13-α-yl-(2R,3S)-3-tert-butoxycarbonylamino-2-hydroxy-3-phenylpropionate trihydrate] here?
A: substantially greater stability
